Test results from article PMC7814854 (Biochemistry, 2019).

Biological target: CMP-sialic acid synthetase (NmCSS) (Neisseria meningitidis, UniProt P0A0Z8)
Experiment: X-ray crystal structure
Assay type: biochemical

Sequence of CMP-sialic acid synthetase (NmCSS) (P0A0Z8 whole entry): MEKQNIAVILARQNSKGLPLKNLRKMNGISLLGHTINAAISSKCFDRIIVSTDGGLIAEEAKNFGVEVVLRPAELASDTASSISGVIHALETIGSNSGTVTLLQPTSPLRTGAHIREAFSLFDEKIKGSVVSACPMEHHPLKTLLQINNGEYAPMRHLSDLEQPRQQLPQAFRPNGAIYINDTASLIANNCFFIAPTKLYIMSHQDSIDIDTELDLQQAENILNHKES

SMILES: CC(=O)N[C@H]1[C@H]([C@H](O)[C@H](O)CO)OC(C(=O)O)=C[C@@H]1O [Neu5Ac2en, 2-deoxy-2,3-dehydro-N-acetylneuraminic acid]
- IC50: 130 ± 10 µM
